The values that follow come from PMC6934184, “Selective DNA-PKcs inhibition extends the therapeutic index of localized radiotherapy and chemotherapy” (The Journal of Clinical Investigation, 2019).

The target of the assay is T1, CAMK2D (CaMKII delta) (Homo sapiens, UniProt Q13557).
T1 construct: purchased Thermo Fisher Scientific (Life Technologies) SelectScreen
Nature of the assay: SelectScreen Z'LYTE. Format: biochemical. In a few lines: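 SelectScreen broad panel; activity (Z'LYTE, Adapta) plus binding formats. ATP: Km app for CSF1R Z'LYTE; 10 for CAMK1 Adapta. Readout = % per kinase.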

T1 sequence (Q13557 whole entry): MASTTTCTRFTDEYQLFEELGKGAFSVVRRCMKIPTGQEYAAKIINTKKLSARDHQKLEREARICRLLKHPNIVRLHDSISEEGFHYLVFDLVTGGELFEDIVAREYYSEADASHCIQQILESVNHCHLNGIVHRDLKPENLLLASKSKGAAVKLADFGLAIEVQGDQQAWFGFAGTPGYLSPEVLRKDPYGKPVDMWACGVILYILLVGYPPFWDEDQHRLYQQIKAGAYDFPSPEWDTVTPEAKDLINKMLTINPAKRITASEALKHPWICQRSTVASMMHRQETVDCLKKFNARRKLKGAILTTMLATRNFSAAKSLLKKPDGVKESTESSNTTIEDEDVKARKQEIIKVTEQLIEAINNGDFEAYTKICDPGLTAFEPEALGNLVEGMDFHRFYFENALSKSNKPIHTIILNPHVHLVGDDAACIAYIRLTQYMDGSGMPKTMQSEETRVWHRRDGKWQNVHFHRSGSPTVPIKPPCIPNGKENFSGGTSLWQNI

A word on the inhibition: it is the change of the read-out against control, counted positive when it falls. Lower therefore signals a response near the control. As for `CN(C(=O)CN1CCOCC1)c1ccc2sc3c(-c4cccc5c(=O)cc(N6CC7CCC(C6)O7)oc45)cccc3c2c1` [NU5455], the inhibition at 1 µM amounted to 9.3%.
